Results reported in the NIST ThermoML archive (doi:10.1007/s10765-009-0593-3).

Test: xn = mol fraction of the nth substance listed
Conditions: 101 kPa, Liquid; for speed of sound: Pulse-echo method

CCCOCC(C)OCC(C)O (stereo not given) [1-(1-methyl-2-propoxyethoxy)-2-propanol] + CCCCNCCCC
Conditions	mass density, 288.15 K [kg/m3]	mass density, 293.15 K [kg/m3]	mass density, 298.15 K [kg/m3]	mass density, 303.15 K [kg/m3]	mass density, 308.15 K [kg/m3]	speed of sound, 288.15 K [m/s]	speed of sound, 293.15 K [m/s]	speed of sound, 298.15 K [m/s]	speed of sound, 303.15 K [m/s]	speed of sound, 308.15 K [m/s]
x1 = 0.123	792.458	788.243	783.999	779.716	775.539	1291.2	1271.6	1252	1232.1	1212.2
x1 = 0.1582	798.993	794.736	790.406	786.126	781.949	1293.2	1273.2	1253.7	1233.9	1214
x1 = 0.1913	804.954	800.654	796.281	791.94	787.756	1294.9	1274.7	1255.1	1235.5	1215.5
x1 = 0.2541	815.956	811.61	807.16	802.761	798.492	1297.6	1277.1	1257.5	1238.1	1218.1
x1 = 0.3195	827.1	822.71	818.293	813.903	809.461	1299.8	1279.3	1259.6	1240.4	1220.4
x1 = 0.3623	834.198	829.803	825.41	821.074	816.52	1300.9	1280.5	1260.8	1241.7	1221.7
x1 = 0.4155	842.79	838.381	834.053	829.782	825.107	1302	1281.8	1262	1243	1223.1
x1 = 0.4543	848.877	844.447	840.151	835.948	831.19	1302.6	1282.7	1262.9	1243.9	1223.9
x1 = 0.4974	855.422	850.98	846.721	842.533	837.752	1303.2	1283.5	1263.7	1244.7	1224.7
x1 = 0.5491	863.031	858.573	854.308	850.092	845.325	1303.6	1284.3	1264.5	1245.6	1225.6
x1 = 0.6027	870.648	866.201	861.902	857.606	852.894	1304	1285.1	1265.2	1246.4	1226.4
x1 = 0.6687	879.855	875.389	871.011	866.586	861.99	1304.3	1285.8	1266	1247.1	1227.2
x1 = 0.6962	883.669	879.204	874.806	870.321	865.762	1304.4	1286	1266.3	1247.4	1227.5
x1 = 0.7504	891.256	886.786	882.325	877.785	873.301	1304.6	1286.4	1266.8	1248	1228
x1 = 0.7997	898.225	893.775	889.311	884.771	880.284	1304.8	1286.7	1267.3	1248.4	1228.5
x1 = 0.8657	907.649	903.208	898.805	894.377	889.838	1305.3	1287	1267.9	1249	1229.1
x1 = 0.8963	911.923	907.504	903.128	898.789	894.205	1305.5	1287.2	1268.2	1249.3	1229.4
x1 = 0.9589	920.017	915.65	911.3	907.024	902.428	1306.3	1287.4	1268.8	1250	1230

CCCOCC(C)OCC(C)O (stereo not given) [1-(1-methyl-2-propoxyethoxy)-2-propanol] + CCCCN
Conditions	mass density, 288.15 K [kg/m3]	mass density, 293.15 K [kg/m3]	mass density, 298.15 K [kg/m3]	mass density, 303.15 K [kg/m3]	mass density, 308.15 K [kg/m3]	speed of sound, 288.15 K [m/s]	speed of sound, 293.15 K [m/s]	speed of sound, 298.15 K [m/s]	speed of sound, 303.15 K [m/s]	speed of sound, 308.15 K [m/s]
x1 = 0.1119	781.657	776.972	772.263	767.527	762.757	1299.1	1277.8	1256.7	1235.5	1214.2
x1 = 0.1625	797.6	792.951	788.269	783.562	778.83	1301.8	1281	1260.2	1239.5	1218.7
x1 = 0.2153	812.62	807.989	803.334	798.647	793.946	1304.3	1283.9	1263.4	1243.2	1222.8
x1 = 0.2414	819.423	814.802	810.159	805.481	800.782	1305.4	1285.2	1264.8	1244.8	1224.6
x1 = 0.3043	834.258	829.657	825.032	820.381	815.702	1307.7	1287.9	1267.8	1248.3	1228.4
x1 = 0.35	843.808	839.22	834.611	829.962	825.299	1309.1	1289.5	1269.7	1250.3	1230.7
x1 = 0.4162	856.225	851.642	847.04	842.409	837.754	1310.7	1291.4	1271.9	1252.8	1233.4
x1 = 0.4519	862.336	857.764	853.179	848.559	843.907	1311.3	1292.2	1272.8	1253.8	1234.6
x1 = 0.4946	869.26	864.701	860.118	855.511	850.865	1311.9	1292.9	1273.7	1254.8	1235.7
x1 = 0.547	877.184	872.638	868.071	863.48	858.867	1312.4	1293.5	1274.5	1255.8	1236.8
x1 = 0.5938	883.779	879.25	874.697	870.123	865.527	1312.6	1293.8	1275	1256.3	1237.5
x1 = 0.6567	891.947	887.44	882.917	878.364	873.793	1312.5	1293.9	1275.2	1256.6	1237.9
x1 = 0.6997	897.047	892.555	888.041	883.505	878.95	1312.2	1293.7	1275.1	1256.5	1238
x1 = 0.7665	904.096	899.635	895.15	890.644	886.119	1311.5	1293	1274.6	1256.1	1237.7
x1 = 0.8068	907.864	903.41	898.94	894.449	889.942	1310.8	1292.3	1274.1	1255.7	1237.4
x1 = 0.8466	911.283	906.844	902.376	897.903	893.412	1310	1291.6	1273.4	1255.2	1236.9
x1 = 0.9038	915.886	911.457	906.999	902.546	898.065	1308.6	1290.3	1272.1	1254.2	1236.1
x1 = 0.9528	919.898	915.486	911.061	906.607	902.137	1307.2	1288.9	1270.9	1253.1	1235.2
